Experimental findings from PMC7400437, “Synthesis and Evaluation of the Antibacterial Activities of 13-Substituted Berberine Derivatives” (Antibiotics, 2020) are described below.

One data set deals with K. pneumonia. The experiment in a line: MIC, antimicrobial activity assay. Type of data set: cell-based, Klebsiella pneumoniae (DSMZ 26371). The settings on record: Klebsiella pneumoniae; Table 4, Gram-negative.
Data set [1] concerns bacterial DNA extracted from V. alginolyticus. The experiment in a line: DNA fragmentation assay. As to conditions: 6 h at 37 °C, 4-times their MIC.
The test system of data set [2] is P. aeruginosa (Quinolone-resistant). Briefly: MIC, antimicrobial activity assay. The format is cell-based. As to conditions: Pseudomonas aeruginosa, read-out: MIC P. aeruginosa (Quinolone-resistant).
Another data set deals with A. gandavensis. Briefly: MIC, antimicrobial activity assay. Type of data set: cell-based, Arthrobacter gandavensis (DSM 2447). As to conditions: Arthrobacter gandavensis; Table 4, Gram-positive.
Data set [3] relates to B. subtilis (Nisin-resistant). The experiment in a line: MIC, antimicrobial activity assay. As to conditions: Bacillus subtilis, read-out: MIC B. subtilis (Nisin-resistant). Type of data set: cell-based, nisin-resistant B. subtilis (DSMZ 347).
The subject of another data set is C. rodentium. Briefly: MIC, antimicrobial activity assay. The format is cell-based, Citrobacter rodentium (ATCC 51116). The settings on record: Citrobacter rodentium; Table 4, Gram-negative.
For another data set, the system named is V. diabolicus. Briefly: MIC, antimicrobial activity assay. The settings on record: Vibrio diabolicus; Table 4, Gram-negative. Type of data set: cell-based.
The test system of data set [4] is HepG2 (human liver cells). The experiment in a line: Cytotoxic assay on human cells (resazurin). Type of data set: cell-based. The settings on record: HepG2, 48 h, read-out: Inhibitory Concentration 50 (IC50) on cell viability, HEPG2. Put shortly:
(§1)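 Cells grown to confluence (48–72 h) were exposed for 48 h at 37 °C to 1:2 serial dilutions from 0 to 50 µM, with 0.5% DMSO as negative control. Resazurin 1:10 in PBS++ was added for 4 h, and fluorescence was read at 530/590 nm and normalized to DMSO wells. IC50 is the concentration giving 50% viability reduction.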

The subject of data set [5] is BEAS (human airway epithelial cells). The experiment in a line: Cytotoxic assay on human cells (resazurin). Type of data set: cell-based. The settings on record: Epithelial cell, 48 h, means +/−SD, read-out: Inhibitory Concentration 50 (IC50) on cell viability, BEAS. The essentials:
as §1

The test system of data set [6] is DNA extracted from S. aureus. The experiment in a line: DNA fragmentation assay. The settings on record: data not shown.
The subject of a further data set is H. pylori. The experiment in a line: Bacterial membrane permeabilization assay (propidium iodide). The settings on record: for membrane permeabilization at 4-times MIC, H. pylori: 4-times their MIC; for maximal membrane permeabilization, H. pylori: 120 min exposure to 100 µM, CTAB 300 µM = 100%. Type of data set: cell-based, Helicobacter pylori. The method, then: (§2) Membrane permeabilization by berberine derivatives was evaluated using the cell-impermeable DNA/RNA probe propidium iodide as previously explained. Logarithmic growing bacterial suspensions were prepared from overnight bacterial suspension by 1 in 10 dilution. After 3 h incubation at 37 °C, 200 rpm, bacterial suspensions were centrifuged for 5 min at 3000 rpm. Cell pellets were then resuspended in sterile PBS at about 10^9 cells/mL. Propidium iodide (Sigma Aldrich) was then added to the suspension at a final concentration of 60 µM. 100 µL of this suspension were then transferred into 96-well black plates (Dominique Dutscher) and exposed to increasing concentrations of berberine’s derivative (from 0 to 100 µM, 1:2 dilution). […] All steps of the assay were performed in aerobic condition except for H. pylori which was done in microaerobic condition generated with GasPak unit (Sigma Aldrich). Bacteria were incubated at 37 °C and the kinetics of fluorescence variations (excitation at 530 nm and emission at 590 nm) were then recorded over time using a Synergy Mx microplate reader (Biotek). Cetyl trimethylammonium bromide (CTAB) at 300 µM was used as positive control giving 100% permeabilization. Results were expressed in % of permeabilization. All experiments were done in triplicate.

The next data set relates to A. baumannii. Briefly: MIC, antimicrobial activity assay. Type of data set: cell-based, Acinetobacter baumannii (CIP 110431). As to conditions: Acinetobacter baumannii; Table 4, Gram-negative.
The subject of another data set is M. smegmatis. The experiment in a line: microbe, parasite or virus in culture. The format is cell-based, Mycobacterium smegmatis (mc2155, ATCC 700084). The settings on record: Mycolicibacterium smegmatis, 72 h, read-out: Minimal Inhibitory Concentration (MIC) M. smegmatis.
The test system of data set [7] is V. alginolyticus. Briefly: MIC, antimicrobial activity assay. Type of data set: cell-based, Vibrio alginolyticus (DSM 2171). As to conditions: Vibrio alginolyticus; Table 4, Gram-negative.
For another data set, the system named is B. subtilis. The experiment in a line: Macromolecule synthesis inhibition assay by fluorescent microscopy (morphological changes). The settings on record: 4 × MIC, 2 h, 37 °C; for Observed Morphology: DNA, B. subtilis: DAPI; for Known/Possible Target, B. subtilis: inferred from morphology.
Data set [8] deals with V. alginolyticus. Briefly: Bacterial membrane permeabilization assay (propidium iodide). The settings on record: for membrane permeabilization at 4-times MIC, V. alginolyticus: 4-times their MIC; for maximal membrane permeabilization, V. alginolyticus: 120 min exposure to 100 µM, CTAB 300 µM = 100%. The format is cell-based, Vibrio alginolyticus. The method, then:
as §2

The test system of the next data set is C. albicans. The experiment in a line: MIC, antifungal activity assay. The format is cell-based, Candida albicans (DSM 10697). As to conditions: Candida albicans; Table 1 first screening; 35 °C, 24 h; read-out: Minimal Inhibitory Concentration (MIC) C. albicans.
Data set [9] has as its system S.aureus (Methicillin-resistant). Briefly: MIC, antimicrobial activity assay. The format is cell-based. As to conditions: Staphylococcus aureus, read-out: MIC S.aureus (Methicillin-resistant).

For `COc1cc(C(=O)Cc2c3[n+](cc4c(OC)c(OC)ccc24)CCc2cc4c(cc2-3)OCO4)cc(OC)c1OC(=O)c1ccccc1` [Compound 16, 4-[2-(Berberin-13-yl)acetyl]-2,6-dimethoxyphenyl Benzoate], the MIC with K. pneumonia is above 100 µM; in data set [2] it was above 100 µM; against A. gandavensis, 100 µM; in data set [3] it was 12.5 µM; against C. rodentium it was above 100 µM; against V. diabolicus, above 100 µM. Further, the MIC with A. baumannii is above 100 µM; in the data set with M. smegmatis, 50 µM; in the data set with V. alginolyticus [7], 3.12 µM; in the data set with C. albicans, above 100 µM; in [9] it was 12.5 µM. In data set [1], the “DNA fragmentation, V. alginolyticus DNA” value is “did not caused DNA fragmentation”. Also, the IC50 in [4] and in [5] was above 50 µM in each case. The “DNA fragmentation, S. aureus DNA” value in [6] is recorded as “failed at causing the fragmentation of DNA”. In addition, the “membrane permeabilization at 4-times MIC, H. pylori” value in the data set on H. pylori is on record as “low to no membrane permeabilization”. In addition, the “maximal membrane permeabilization, H. pylori” value with H. pylori is listed as 50–60%. In addition, the “Observed Morphology: cell elongation/enlargement, B. subtilis” value with B. subtilis is reported as 1.5–6 times compared to control. Moreover, the “Observed Morphology: cells connected, B. subtilis” value with B. subtilis is recorded as 2–4 cells connected. Besides, in the data set with B. subtilis, the “Observed Morphology: DNA, B. subtilis” value is given as 2 morphologies of DNA: • - 2 condensed DNA in each cell • - Decondensed DNA spanning the cell. For the same compound, the “Known/Possible Target, B. subtilis” value in the data set on B. subtilis was “Cell wall biosynthesis”. In addition, the “membrane permeabilization at 4-times MIC, V. alginolyticus” value in the data set with V. alginolyticus [8] is 20–40%. Besides, the “maximal membrane permeabilization, V. alginolyticus” value in the data set on V. alginolyticus [8] was 80–100%.
For the compound `COc1ccc(C(=O)/C=C/c2ccc(Cc3c4[n+](cc5c(OC)c(OC)ccc35)CCc3cc5c(cc3-4)OCO5)cc2)c(O)c1` [Compound 25, (2E)-3-{4-[(Berberin-13-yl)methyl]phenyl}-1-(2-hydroxy-4-methoxyphenyl)prop-2-en-1-one], the MIC in the data set on K. pneumonia was above 100 µM; in data set [2], above 100 µM; against A. gandavensis, 1.5 µM; in [3] it was 6.25 µM; in the data set on C. rodentium, above 100 µM; in the data set on V. diabolicus, above 100 µM. Also, the MIC in the data set on A. baumannii is above 100 µM; in the data set with M. smegmatis it was 25 µM; with V. alginolyticus [7], 3.12 µM; in the data set on C. albicans, 12.5 µM; in data set [9], 6.25 µM. Also, the “DNA fragmentation, V. alginolyticus DNA” value in [1] is “did not caused DNA fragmentation”. Also, the IC50 in [4] was above 50 µM; in data set [5] it was 8.87 ± 1.5 µM. The “DNA fragmentation, S. aureus DNA” value in data set [6] is reported as “failed at causing the fragmentation of DNA”. The “membrane permeabilization at 4-times MIC, H. pylori” value in the data set with H. pylori was “low to no membrane permeabilization”. Further, in the data set with H. pylori, the “maximal membrane permeabilization, H. pylori” value is 50–60%. Besides, in the data set on B. subtilis, the “Observed Morphology: cell elongation/enlargement, B. subtilis” value is given as 1–2.5 times compared to control. In addition, the “Observed Morphology: cells connected, B. subtilis” value with B. subtilis is given as 2–8 cells connected. Also, the “Observed Morphology: DNA, B. subtilis” value with B. subtilis is “DNA condensed and cross the cells with dot like shape”. Also, in the data set on B. subtilis (FM4-64FX), the “Observed Morphology: cell membrane, B. subtilis” value was “Cell membrane thickening”. Besides, the “Known/Possible Target, B. subtilis” value in the data set with B. subtilis was “RNA biosynthesis”. Further, the “membrane permeabilization at 4-times MIC, V. alginolyticus” value in the data set with V. alginolyticus [8] is listed as 20–40%. In addition, the “maximal membrane permeabilization, V. alginolyticus” value in the data set on V. alginolyticus [8] was 80–100%.
